Experimental data published in publication PMC5207512, “Inhibition of Helicobacter pylori and Its Associated Urease by Palmatine: Investigation on the Potential Mechanism” (PLoS ONE, 2017).
Several values for one entry are separate records, joined by “and”; a condition that tells them apart may be missing. Identical values can stand only once. Like-named read-outs stand apart in the source and are kept apart here.

Experiments:
Assay type in all cases: biochemical
[1] = target: T1, H. pylori urease (HPU) (Helicobacter pylori, UniProt P69996); assay: biochemical
T1 construct: HPU was prepared as previously described; made in house
Experimental: (§1) For the protection with inorganic compounds (BA and NaF), 0.25 mg/mL urease (HPU or JBU) was preincubated with 5 mM BA or 5 mM NaF for 20 min. Following preincubation, each sample of the protected urease was incubated with 0.5 mM Pal for 20 min. The samples containing a proper volume of respective buffer instead of Pal served as comparison with the abovementioned systems. The experiments were triply performed.

[2] = target: T2, jack bean urease (JBU) (Canavalia ensiformis, UniProt P07374); assay: biochemical
T2 construct: Urease from jack bean (Canavalia ensiformis, JBU); purchased Sigma-Aldrich (St Louis, MO, USA) type III (catalogue number not given)
Experimental: as §1

[3] = target: T1, H. pylori urease (HPU); assay: biochemical; conditions: read-out: Residual urease activity (percent of control), Fig 5A HPU, thiols 1.25 mM, Pal 0.5 mM, 20+20 min
Experimental: (§2) The reaction mixture consisted of 0.25 mg/mL HPU or JBU, 0.5 mM Pal (for both HPU and JBU), and 1.25 mM thiols (DTT, GSH, or L-cys) in 20 mM HEPES buffer (pH 7.5). The components of the incubation mixture were mixed according to three procedures: (1) Urease was added to the mixture after a 20-min co-incubation of Pal with thiol. (2) Pal was added to the mixture after a 20-min co-incubation of urease with thiol. (3) Thiols were added to the mixture after a 20-min co-incubation of urease with Pal. The incubation mixture containing all components was incubated for further 20 min and the activity of urease was determined. The experiments were triply performed.

[4] = target: T2, jack bean urease (JBU); assay: biochemical; conditions: read-out: Residual urease activity (percent of control), Fig 5B JBU, thiols 1.25 mM, Pal 0.5 mM, 20+20 min
Experimental: as §2

[5] = target: T1, H. pylori urease (HPU); assay: Urease inhibition test (modified Berthelot method)
Experimental: (§3) HPU was prepared as previously described. The standard urease assay mixture included 150 mM urea in 20 mM HEPES buffer (pH 7.5). After addition of small aliquots of enzyme-containing solution of urease, the assay ran for 20 min. The enzymatic activity was evaluated spectrophotometrically by detecting the ammonia concentration at 595 nm according to the modified Berthelot (phenol-hypochlorite) method. Urease activity was estimated with JBU as a standard, the specific activity of HPU was determined to be 17.0 U/mg. One unit of urease activity was defined as 1 μmol of ammonia released per min at 25°C. The amount of protein was determined by commercial Bradford Protein Assay Kit with BSA as a standard. The amount of ammonia released was decided from a standard curve. The activity of uninhibited urease was defined as the control activity of 100%.
(§4) Reaction mixtures comprising 0.25 mg/mL HPU or JBU and different concentrations of Pal or AHA at the volume ratio of 1:1, were incubated at 37°C in 20 mM HEPES buffer (pH 7.5) in the absence of urea. The reactions were initiated by mixing the urease and the inhibitor. The preincubation mixture was withdrawn at 20 min and immediately transferred into the standard assay mixtures for urease residual activity determination. Inhibition rate (%) was calculated following the formula: I % = (1-activity with inhibitors/activity without inhibitors) × 100%. The IC50 was expressed as the concentration of inhibitor that decreased urease activity by 50% and calculated by plotting the percent of inhibition. The experiments were triply performed.

[6] = target: T2, jack bean urease (JBU); assay: Urease inhibition test (modified Berthelot method)
Experimental: as §3, §4

T1 sequence (P14916 whole entry): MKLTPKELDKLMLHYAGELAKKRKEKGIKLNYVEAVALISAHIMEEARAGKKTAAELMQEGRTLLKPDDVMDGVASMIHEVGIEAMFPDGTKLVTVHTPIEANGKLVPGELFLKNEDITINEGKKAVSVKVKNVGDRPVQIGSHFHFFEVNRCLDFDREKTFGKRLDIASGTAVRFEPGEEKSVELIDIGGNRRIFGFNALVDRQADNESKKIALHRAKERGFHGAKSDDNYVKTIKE
T1 sequence (P69996 whole entry): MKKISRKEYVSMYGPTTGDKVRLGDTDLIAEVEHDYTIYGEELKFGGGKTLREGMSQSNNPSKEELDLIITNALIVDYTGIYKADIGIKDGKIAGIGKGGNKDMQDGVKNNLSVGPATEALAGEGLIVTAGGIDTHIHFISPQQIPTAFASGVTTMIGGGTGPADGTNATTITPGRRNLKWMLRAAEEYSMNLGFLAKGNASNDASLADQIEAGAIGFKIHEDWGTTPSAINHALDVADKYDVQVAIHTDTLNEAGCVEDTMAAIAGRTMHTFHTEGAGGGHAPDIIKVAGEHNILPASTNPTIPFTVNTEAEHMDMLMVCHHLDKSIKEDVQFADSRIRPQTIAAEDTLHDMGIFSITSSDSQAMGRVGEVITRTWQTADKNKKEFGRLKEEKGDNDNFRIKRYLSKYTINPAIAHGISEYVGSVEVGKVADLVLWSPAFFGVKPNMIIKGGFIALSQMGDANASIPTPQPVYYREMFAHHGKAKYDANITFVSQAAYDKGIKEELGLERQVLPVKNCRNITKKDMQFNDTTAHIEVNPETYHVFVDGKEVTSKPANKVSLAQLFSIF
T2 sequence (P07374 whole entry, looked up): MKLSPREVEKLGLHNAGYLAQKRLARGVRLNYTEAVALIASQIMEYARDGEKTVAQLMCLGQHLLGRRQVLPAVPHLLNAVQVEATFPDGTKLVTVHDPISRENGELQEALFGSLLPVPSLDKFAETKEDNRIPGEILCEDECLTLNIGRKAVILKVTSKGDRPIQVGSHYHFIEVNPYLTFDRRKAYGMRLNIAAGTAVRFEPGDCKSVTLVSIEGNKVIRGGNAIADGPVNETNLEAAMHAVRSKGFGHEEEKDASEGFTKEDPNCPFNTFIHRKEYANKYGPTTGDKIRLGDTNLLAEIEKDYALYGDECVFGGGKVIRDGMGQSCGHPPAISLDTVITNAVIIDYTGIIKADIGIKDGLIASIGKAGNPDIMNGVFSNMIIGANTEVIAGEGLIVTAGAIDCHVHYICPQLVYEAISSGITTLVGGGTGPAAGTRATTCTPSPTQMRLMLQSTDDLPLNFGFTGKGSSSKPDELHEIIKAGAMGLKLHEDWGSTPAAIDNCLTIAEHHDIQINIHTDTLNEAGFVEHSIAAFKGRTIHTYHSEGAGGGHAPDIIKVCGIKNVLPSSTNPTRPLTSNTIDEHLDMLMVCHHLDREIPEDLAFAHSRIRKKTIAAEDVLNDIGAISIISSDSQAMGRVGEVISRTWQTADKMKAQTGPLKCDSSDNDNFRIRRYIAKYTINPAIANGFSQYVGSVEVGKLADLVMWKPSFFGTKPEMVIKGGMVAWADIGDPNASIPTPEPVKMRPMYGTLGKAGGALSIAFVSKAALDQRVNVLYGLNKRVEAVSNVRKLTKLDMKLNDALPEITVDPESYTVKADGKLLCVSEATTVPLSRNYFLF

COc1cc2c(cc1OC)-c1cc3ccc(OC)c(OC)c3c[n+]1CC2 [Pal, Palmatine]
Residual urease activity (percent of control) ([1]; Fig 4C HPU, BA or NaF 5 mM preincubated 20 min, Pal 0.5 mM 20 min): 23.7773% and 26.341% | activity of enzyme inactivated by Pal in the presence of BA ([1]; HPU, 5 mM BA + 0.5 mM Pal, mean): 22.42% | activity of enzyme inactivated by Pal in the presence of NaF ([1]; HPU, 5 mM NaF + 0.5 mM Pal, mean): 20.35% | remaining activity at 500 µM ([1]; read-out: Residual urease activity (percent of control), Fig 4C HPU, BA or NaF 5 mM preincubated 20 min, Pal 0.5 mM 20 min): 23.1% | Residual urease activity (percent of control) ([2]; Fig 4D JBU, BA or NaF 5 mM preincubated 20 min, Pal 0.5 mM 20 min): 36.6919% and 36.1251% | activity of enzyme inactivated by Pal in the presence of BA ([2]; JBU, 5 mM BA + 0.5 mM Pal, mean): 33.08% | activity of enzyme inactivated by Pal in the presence of NaF ([2]; JBU, 5 mM NaF + 0.5 mM Pal, mean): 19.91% | remaining activity at 500 µM ([2]; read-out: Residual urease activity (percent of control), Fig 4D JBU, BA or NaF 5 mM preincubated 20 min, Pal 0.5 mM 20 min): 35.2% | remaining activity at 500 µM ([3]; order (Protector+Pal)+urease): 19.8% | remaining activity at 500 µM ([3]; order (urease+Pal)+Protector): 20% | remaining activity at 500 µM ([3]; order (urease+Protector)+Pal): 16.7% | remaining activity at 500 µM ([4]; order (Protector+Pal)+urease): 43.3% | remaining activity at 500 µM ([4]; order (urease+Pal)+Protector): 38% | remaining activity at 500 µM ([4]; order (urease+Protector)+Pal): 35.4% | IC50 [5]: 530 ± 10 µM | Residual activity ([5]; Fig 2A HPU, Pal 0.0149062 mM, replicates): 97.2774% and 99.8185% | Residual activity ([5]; Fig 2A HPU, Pal 0.0298125 mM, replicates): 98.3238% and 98.6586% | Residual activity ([5]; Fig 2A HPU, Pal 0.059625 mM, replicates): 95.8144% and 91.8003% | Residual activity ([5]; Fig 2A HPU, Pal 0.11925 mM, replicates): 84.6333% and 83.9334% | Residual activity ([5]; Fig 2A HPU, Pal 0.2385 mM, replicates): 71.2237% and 68.6838% | Residual activity ([5]; Fig 2A HPU, Pal 0.477 mM, replicates): 44.3368% and 41.1296% | Residual activity ([5]; Fig 2A HPU, Pal 0.954 mM, replicates): 18.2056% and 23.6712% | Residual activity ([5]; Fig 2C HPU, head prints Pal 0.00755209 mM, replicates): 104.061% and 86.9419% | Residual activity ([5]; Fig 2C HPU, head prints Pal 0.0151042 mM, replicates): 98.3628% and 84.9736% | Residual activity ([5]; Fig 2C HPU, head prints Pal 0.0302084 mM, replicates): 80.4878% and 87.2209% and 66.9067% | Residual activity ([5]; Fig 2C HPU, head prints Pal 0.0604167 mM, replicates): 64.023% and 48.6958% | Residual activity ([5]; Fig 2C HPU, head prints Pal 0.120833 mM, replicates): 34.9663% and 29.6848% | Residual activity ([5]; Fig 2C HPU, head prints Pal 0.241667 mM, replicates): 20.774% and 15.3785% | remaining activity at 14.9062 µM ([5]; read-out: Residual activity, Fig 2A HPU, Pal 0.0149062 mM, replicates): 98.5% | remaining activity at 29.8125 µM ([5]; read-out: Residual activity, Fig 2A HPU, Pal 0.0298125 mM, replicates): 92% | remaining activity at 59.625 µM ([5]; read-out: Residual activity, Fig 2A HPU, Pal 0.059625 mM, replicates): 88% | remaining activity at 119.25 µM ([5]; read-out: Residual activity, Fig 2A HPU, Pal 0.11925 mM, replicates): 77.1% | remaining activity at 238.5 µM ([5]; read-out: Residual activity, Fig 2A HPU, Pal 0.2385 mM, replicates): 66.8% | remaining activity at 477 µM ([5]; read-out: Residual activity, Fig 2A HPU, Pal 0.477 mM, replicates): 49.6% | remaining activity at 954 µM ([5]; read-out: Residual activity, Fig 2A HPU, Pal 0.954 mM, replicates): 24.2% | remaining activity at 7.55209 µM ([5]; read-out: Residual activity, Fig 2C HPU, head prints Pal 0.00755209 mM, replicates): 94.8% | remaining activity at 15.1042 µM ([5]; read-out: Residual activity, Fig 2C HPU, head prints Pal 0.0151042 mM, replicates): 92.1% | remaining activity at 60.4167 µM ([5]; read-out: Residual activity, Fig 2C HPU, head prints Pal 0.0604167 mM, replicates): 56.1% | remaining activity at 120.833 µM ([5]; read-out: Residual activity, Fig 2C HPU, head prints Pal 0.120833 mM, replicates): 31% | remaining activity at 241.667 µM ([5]; read-out: Residual activity, Fig 2C HPU, head prints Pal 0.241667 mM, replicates): 23.2% | IC50 [6]: 30 µM | Residual activity ([6]; Fig 2B JBU, Pal 0.0149062 mM, replicates): 54.1182% and 57.7693% | Residual activity ([6]; Fig 2B JBU, Pal 0.0298125 mM, replicates): 50.3004% and 49.1799% | Residual activity ([6]; Fig 2B JBU, Pal 0.059625 mM, replicates): 40.1092% and 41.6437% | Residual activity ([6]; Fig 2B JBU, Pal 0.11925 mM, replicates): 37.8863% and 32.26% | Residual activity ([6]; Fig 2B JBU, Pal 0.2385 mM, replicates): 38.5515% and 35.644% | Residual activity ([6]; Fig 2B JBU, Pal 0.477 mM, replicates): 32.5751% and 31.4745% | Residual activity ([6]; Fig 2B JBU, Pal 0.954 mM, replicates): 26.1588% and 18.0767% | Residual activity ([6]; Fig 2D JBU, head prints Pal 0.00188802 mM, replicates): 95.2237% and 88.9105% | Residual activity ([6]; Fig 2D JBU, head prints Pal 0.00377605 mM, replicates): 91.7722% and 82.8804% | Residual activity ([6]; Fig 2D JBU, head prints Pal 0.00755209 mM, replicates): 77.2806% and 78.6217% | Residual activity ([6]; Fig 2D JBU, head prints Pal 0.0151042 mM, replicates): 56.6996% and 59.4273% | Residual activity ([6]; Fig 2D JBU, head prints Pal 0.0302084 mM, replicates): 37.3504% and 39.7719% | Residual activity ([6]; Fig 2D JBU, head prints Pal 0.0604167 mM, replicates): 24.6949% and 22.6887% | Residual activity ([6]; Fig 2D JBU, head prints Pal 0.120833 mM, replicates): 12.8879% and 13.7831% | Residual activity ([6]; Fig 2D JBU, head prints Pal 0.241667 mM, replicates): 10.3312% and 12.3028% | remaining activity at 14.9062 µM ([6]; read-out: Residual activity, Fig 2B JBU, Pal 0.0149062 mM, replicates): 55.1% | remaining activity at 29.8125 µM ([6]; read-out: Residual activity, Fig 2B JBU, Pal 0.0298125 mM, replicates): 49% | remaining activity at 59.625 µM ([6]; read-out: Residual activity, Fig 2B JBU, Pal 0.059625 mM, replicates): 45.6% | remaining activity at 119.25 µM ([6]; read-out: Residual activity, Fig 2B JBU, Pal 0.11925 mM, replicates): 38.6% | remaining activity at 238.5 µM ([6]; read-out: Residual activity, Fig 2B JBU, Pal 0.2385 mM, replicates): 36.2% | remaining activity at 477 µM ([6]; read-out: Residual activity, Fig 2B JBU, Pal 0.477 mM, replicates): 25.7% | remaining activity at 954 µM ([6]; read-out: Residual activity, Fig 2B JBU, Pal 0.954 mM, replicates): 27.1% | remaining activity at 1.88802 µM ([6]; read-out: Residual activity, Fig 2D JBU, head prints Pal 0.00188802 mM, replicates): 94.8% | remaining activity at 3.77605 µM ([6]; read-out: Residual activity, Fig 2D JBU, head prints Pal 0.00377605 mM, replicates): 88.2% | remaining activity at 7.55209 µM ([6]; read-out: Residual activity, Fig 2D JBU, head prints Pal 0.00755209 mM, replicates): 75.2% | remaining activity at 15.1042 µM ([6]; read-out: Residual activity, Fig 2D JBU, head prints Pal 0.0151042 mM, replicates): 55.4% | remaining activity at 30.2084 µM ([6]; read-out: Residual activity, Fig 2D JBU, head prints Pal 0.0302084 mM, replicates): 36.9% | remaining activity at 60.4167 µM ([6]; read-out: Residual activity, Fig 2D JBU, head prints Pal 0.0604167 mM, replicates): 25.4% | remaining activity at 120.833 µM ([6]; read-out: Residual activity, Fig 2D JBU, head prints Pal 0.120833 mM, replicates): 15.7% | remaining activity at 241.667 µM ([6]; read-out: Residual activity, Fig 2D JBU, head prints Pal 0.241667 mM, replicates): 11.3%
